We go through 15 compounds from PMC10095708, “Discovery of Novel STING Inhibitors Based on the Structure of the Mouse STING Agonist DMXAA” (Molecules, 2023).

In one data set the target is T1, hSTING-AQ (Homo sapiens, UniProt Q86WV6, G230A/R293Q).
T1 construct: purchased Cisbio
The data set is described as follows: HTRF STING competition binding (cGAMP displacement) assay, hSTING-AQ. Conditions: for IC50: HTRF displacement assay, means from at least three repeated experiments; for binding to hSTING-AQ in displacement assay, in words: concentrations up to 100 μM. As to the method:
(§1) Mouse STING binding kits, human STING WT binding kits, human AQ STING binding kits, human H232 STING binding kits were purchased from Cisbio. […] QUANTI-Blue solution, QUANTI-Luc, 2′,3′-cGAMP were purchased from Invivogen. […] CellTiter-Glo luminescent cell viability assay kit was obtained from Promega.
(§2) According to the instructions of STING binding kits, the following solutions were successively added to each well in the 384-well plate: 5 μL of the detection compounds or 2′,3′-cGAMP (positive control) with different concentrations or diluent (negative control); 5 μL of human STING 6His-tagged protein (negative control well was added to detection buffer); 10 μL of STING ligand d2 and Anti 6His-Tb3^+ premixed working solution.
For orientation: In TR-FRET formats the signal depends on donor and acceptor labels being close together.

The target of another data set is T2, hSTING-H232 (Homo sapiens, UniProt Q86WV6).
T2 construct: purchased Cisbio
T2 sequence (Q86WV6 135-379 limits assumed): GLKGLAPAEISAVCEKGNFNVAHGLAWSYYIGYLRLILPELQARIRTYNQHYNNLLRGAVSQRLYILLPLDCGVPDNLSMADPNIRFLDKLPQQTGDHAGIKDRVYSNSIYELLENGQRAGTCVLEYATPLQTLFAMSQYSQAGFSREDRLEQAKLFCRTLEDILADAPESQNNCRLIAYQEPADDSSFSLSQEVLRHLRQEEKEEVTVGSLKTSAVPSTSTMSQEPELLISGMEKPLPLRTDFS
The data set is described as follows: HTRF STING competition binding (cGAMP displacement) assay, hSTING-H232. The following applies: for IC50: HTRF displacement assay, means from at least three repeated experiments; for binding to hSTING-H232 in displacement assay, in words: concentrations up to 100 μM. As to the method: as §1, §2

Data set [1] concerns the target T3, mSTING (Mus musculus, UniProt Q3TBT3).
T3 sequence (Q3TBT3 1-378): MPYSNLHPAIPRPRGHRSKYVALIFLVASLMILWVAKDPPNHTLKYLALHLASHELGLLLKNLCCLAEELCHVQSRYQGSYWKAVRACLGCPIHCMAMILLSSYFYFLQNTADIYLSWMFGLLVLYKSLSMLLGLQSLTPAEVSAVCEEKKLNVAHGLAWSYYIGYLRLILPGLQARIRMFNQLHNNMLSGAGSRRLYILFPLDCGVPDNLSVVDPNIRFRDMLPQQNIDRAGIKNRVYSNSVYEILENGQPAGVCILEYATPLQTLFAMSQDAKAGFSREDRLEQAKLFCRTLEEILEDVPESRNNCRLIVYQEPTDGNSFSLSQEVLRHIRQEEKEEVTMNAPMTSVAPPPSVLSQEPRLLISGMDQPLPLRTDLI
The data set is described as follows: HTRF STING competition binding (cGAMP displacement) assay, mSTING. On the set-up: purchased Cisbio. Conditions: for IC50: HTRF displacement assay, means from at least three repeated experiments; for binding to mSTING in displacement assay, in words: concentrations up to 100 μM. The procedure:
as §1, §2

A further data set addresses T4, hSTING-WT (Homo sapiens, UniProt Q86WV6, H232R).
T4 construct: purchased Cisbio
The data set is described as follows: HTRF STING competition binding (cGAMP displacement) assay, hSTING-WT. Conditions: for IC50: HTRF displacement assay, means from at least three repeated experiments; for binding to hSTING-WT in displacement assay, in words: concentrations up to 100 μM. The procedure: as §1, §2

A further data set concerns the target hSTING-R232 (Homo sapiens, UniProt Q86WV6, H232R). The data set is described as follows: Cellular assay for STING inhibitory activity, 293T hSTING-R232 cells stimulated with 2′,3′-cGAMP (SEAP). The following applies: for inhibitory potency in human STING reporter cells, initial screen: compound at 100 μM.
The target in data set [2] is T3, mSTING. The data set is described as follows: Cellular assay for STING inhibitory activity, 293T mSTING cells stimulated with 2′,3′-cGAMP (SEAP). The following applies: for inhibitory potency in murine STING reporter cells, initial screen: compound at 100 μM.
The test system of data set [3] is STING-triggered IRF pathway. Nature of the data set: Inhibition of STING dual pathways, THP1-KI-hSTING-R232 cells, IRF (Lucia luciferase). Conditions: THP1-hSTING-R232 cells stimulated with 2′,3′-cGAMP, 24 h; 11 20 µM, 27 33 µM, H151 2 µM.
Description: (§3) After the THP-1 reporter cell line stimulation with 2′,3′-cGAMP, we added STING inhibitors with appropriate concentrations for inhibiting the inductions of I IFN and proinflammatory cytokine. […] In addition, to exclude the effect of cytotoxicity of the compounds on the inhibitory activity, we used the CellTiter-Glo kit to assay cellular activity.
Another data set deals with 293T cells. Nature of the data set: CellTiter-Glo luminescent cell viability assay, 293T cells. Conditions: 48 h. A general note: Cellular ATP, detected with luciferase, serves as a proxy for viable cell number.
A further data set concerns THP-1 cells. The data set is described as follows: CellTiter-Glo luminescent cell viability assay, THP-1 cells. The following applies: 48 h.
The subject of data set [4] is STING-triggered NF-κB pathway. The data set is described as follows: Inhibition of STING dual pathways, THP1-KI-hSTING-R232 cells, NF-κB (SEAP). Conditions: THP1-hSTING-R232 cells stimulated with 2′,3′-cGAMP, 24 h; 11 20 µM, 27 33 µM, H151 2 µM.
Description: as §3

Values joined by “and” are separate entries in the source; they are usually repeats but may differ in a detail not shown here. Equal entries are not always repeated.

T1 sequence (Q86WV6 whole entry G230A/R293Q): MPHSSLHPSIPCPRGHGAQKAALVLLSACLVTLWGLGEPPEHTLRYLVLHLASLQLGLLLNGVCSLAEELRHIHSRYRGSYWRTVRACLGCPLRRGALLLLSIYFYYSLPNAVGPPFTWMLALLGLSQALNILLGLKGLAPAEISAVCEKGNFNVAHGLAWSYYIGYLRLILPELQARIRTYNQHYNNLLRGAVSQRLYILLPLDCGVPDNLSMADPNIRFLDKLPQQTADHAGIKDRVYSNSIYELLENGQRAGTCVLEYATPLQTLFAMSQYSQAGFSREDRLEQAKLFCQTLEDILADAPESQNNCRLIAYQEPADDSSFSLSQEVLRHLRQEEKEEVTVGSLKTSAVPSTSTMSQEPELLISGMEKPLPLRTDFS
T4 sequence (Q86WV6 whole entry H232R): as the sequence (Q86WV6 whole entry G230A/R293Q) above, with A230G, H232R, Q293R counted along it
hSTING-R232, sequence (Q86WV6 whole entry H232R): as the sequence (Q86WV6 whole entry G230A/R293Q) above, with A230G, H232R, Q293R counted along it

Take `COc1cc2c(=O)c3ccccc3[nH]c2c(C)c1C` [Compound 9, 2-methoxy-3,4-dimethylacridin-9(10H)-one]: on hSTING-AQ, the concentration for half-maximal inhibition (IC50) (in general, the midpoint of a concentration-inhibition curve) is above 100 µM and the “binding to hSTING-AQ in displacement assay, in words” value (“binding to hSTING-AQ” below) is “cannot bind to STING”. In addition, at hSTING-H232, the IC50 was above 100 µM and the “binding to hSTING-H232 in displacement assay, in words” value (from here on “binding to hSTING-H232”) is given as “cannot bind to STING”. Besides, at mSTING [1], the IC50 is above 100 µM and the “binding to mSTING in displacement assay, in words” value (“binding to mSTING” for short) is given as “cannot bind to STING”. Besides, on hSTING-WT, the IC50 was above 100 µM and the “binding to hSTING-WT in displacement assay, in words” value (“binding to hSTING-WT” below) was “cannot bind to STING”.
For `CCOC(=O)Cn1c2ccccc2c(=O)c2cc(OC)c(C)c(C)c21` [Compound 10, Ethyl 2-(2-methoxy-3,4-dimethyl-9-oxoacridin-10 (9H)-yl)acetate], on hSTING-AQ, the IC50 is above 100 µM and the “binding to hSTING-AQ” value is on record as “cannot bind to STING”. At hSTING-H232, the IC50 is above 100 µM and the “binding to hSTING-H232” value is given as “cannot bind to STING”. Besides, at mSTING [1], the IC50 was above 100 µM and the “binding to mSTING” value is recorded as “cannot bind to STING”. For the same compound, on hSTING-WT, the IC50 is above 100 µM and the “binding to hSTING-WT” value is “cannot bind to STING”.
`COc1cc2c(=O)c3ccccc3n(CC(=O)O)c2c(C)c1C` [Compound 11, 2-(2-methoxy-3,4-dimethyl-9-oxoacridin-10(9H)-yl)acetic acid]: the IC50 against hSTING-R232 is 19.9 µM; on mSTING [2], 15.5 µM; at hSTING-AQ, < 20 µM and 14.3 µM; at hSTING-H232, < 20 µM and 12.1 µM; at mSTING [1] it was < 20 µM and 19 µM; at hSTING-WT it was < 20 µM and 5.81 µM. The “inhibitory potency in human STING reporter cells, initial screen” value against hSTING-R232 is “excellent inhibition”. At mSTING [2], the “inhibitory potency in murine STING reporter cells, initial screen” value is “excellent inhibition”. Further, the “inhibition of STING-triggered IRF pathway activation” value in data set [3] is “significantly inhibited”. For the same compound, in the data set on 293T cells (5 to 100 μM), the “cytotoxicity, cell viability 293T cells” value is reported as “no evidence of cytotoxicity”. Moreover, the “cytotoxicity, cell viability THP-1 cells” value in the data set with THP-1 cells (5 to 100 μM) is “no evidence of cytotoxicity”. Moreover, the “inhibition of STING-triggered NF-κB pathway activation” value in data set [4] is given as “significantly inhibited”.
For the compound `COc1cc2c(=O)c3c(Cl)ccc4c3n(c2c(C)c1C)C(=O)C4` [Compound 25, 5-chloro-8-methoxy-9,10-dimethyl-6H-pyrrolo [3,2,1-de]acridine-1,6(2H)-dione], the concentration for half-maximal inhibition (IC50) came out at 48 µM at hSTING-AQ, 37.7 µM on hSTING-H232, 32.4 µM on mSTING [1] and 78.1 µM at hSTING-WT.
`COc1cc2c(=O)c3cc(Cl)cc4c3n(c2c(C)c1C)C(=O)C4` [Compound 26, 4-chloro-8-methoxy-9,10-dimethyl-6H-pyrrolo[3,2,1-de]acridine-1,6(2H)-dione]: the IC50 at hSTING-AQ is 65.1 µM; at hSTING-H232 it was 79.1 µM; on mSTING [1], 51.5 µM; at hSTING-WT, above 100 µM.
With `COc1cc2c(=O)c3c(F)ccc4c3n(c2c(C)c1C)C(=O)C4` [Compound 27, 5-fluoro-8-methoxy-9,10-dimethyl-6H-pyrrolo[3,2,1-de]acridine-1,6(2H)-dione], at hSTING-R232, half-maximal inhibition (IC50) was put at 38.8 µM and the “inhibitory potency in human STING reporter cells, initial screen” value was “excellent inhibition”. Further, on mSTING [2], half-maximal inhibition (IC50) was put at 30.8 µM and the “inhibitory potency in murine STING reporter cells, initial screen” value is on record as “excellent inhibition”. Also, at hSTING-AQ, the IC50 came to 5.82 µM and the “binding to hSTING-AQ” value is recorded as “single-digit micromolar activity”. Moreover, on hSTING-H232, the IC50 was found to be 6.57 µM and the “binding to hSTING-H232” value is listed as “single-digit micromolar activity”. The “inhibition of STING-triggered IRF pathway activation” value in [3] is listed as “significantly inhibited”. On mSTING [1], the IC50 worked out at 3.88 µM and the “binding to mSTING” value is reported as “single-digit micromolar activity”. Also, at hSTING-WT, the IC50 is 7.67 µM and the “binding to hSTING-WT” value is listed as “single-digit micromolar activity”. Also, the “inhibition of STING-triggered NF-κB pathway activation” value in data set [4] is recorded as “significantly inhibited”.
As for `COc1cc2c(=O)c3cc(F)cc4c3n(c2c(C)c1C)C(=O)C4` [Compound 28, 4-fluoro-8-methoxy-9,10-dimethyl-6H-pyrrolo[3,2,1-de]acridine-1,6(2H)-dione], the IC50 worked out at 55.2 µM on hSTING-AQ, 62.4 µM on hSTING-H232, 61 µM on mSTING [1] and 88.1 µM on hSTING-WT.
`COc1cc2c3c(c1)c(=O)c1cc(OC)c(C)c(C)c1n3C(=O)C2` [Compound 29, 4,8-dimethoxy-9,10-dimethyl-6H-pyrrolo[3,2,1-de]acridine-1,6(2H)-dione]: the IC50 on hSTING-AQ is 70.5 µM; on hSTING-H232 it was 82.8 µM; at mSTING [1] it was above 100 µM; on hSTING-WT, above 100 µM.
Take `COc1cc2c(=O)c3cccc(C(=O)O)c3[nH]c2c(C)c1C` [Compound 33, 7-methoxy-5,6-dimethyl-9-oxo-9,10-dihydroacridine-4-carboxylic acid]: at hSTING-AQ, the IC50 was above 100 µM and the “binding to hSTING-AQ” value was “inactive”. At hSTING-H232, the IC50 was above 100 µM and the “binding to hSTING-H232” value was “inactive”. On mSTING [1], the IC50 is above 100 µM and the “binding to mSTING” value was “inactive”. Further, at hSTING-WT, the IC50 was above 100 µM and the “binding to hSTING-WT” value was “inactive”.
Turning to `COc1cc(C(=O)O)c2[nH]c3c(C)c(C)c(OC)cc3c(=O)c2c1` [Compound 34, 2,7-dimethoxy-5,6-dimethyl-9-oxo-9,10-dihydroacridine-4-carboxylic acid], at hSTING-AQ, the IC50 was above 100 µM and the “binding to hSTING-AQ” value was “inactive”. For the same compound, at hSTING-H232, the IC50 is above 100 µM and the “binding to hSTING-H232” value was “inactive”. For the same compound, on mSTING [1], the IC50 was above 100 µM and the “binding to mSTING” value was “inactive”. Also, on hSTING-WT, the IC50 is above 100 µM and the “binding to hSTING-WT” value is “inactive”.
With `COc1cc2c(=O)c3c(F)ccc(CC(=O)O)c3[nH]c2c(C)c1C` [Compound 35], the IC50 at hSTING-AQ, at hSTING-H232, on mSTING [1] and on hSTING-WT was above 100 µM throughout.
Take `COc1cc2c(=O)c3c(Cl)ccc(CC(=O)O)c3[nH]c2c(C)c1C` [Compound 36]: the IC50 at hSTING-AQ, on hSTING-H232, on mSTING [1] and on hSTING-WT was above 100 µM in each case.
`COc1cc2c(=O)c3cc(F)cc(CC(=O)O)c3[nH]c2c(C)c1C` [Compound 37]: the IC50 at hSTING-AQ, at hSTING-H232, on mSTING [1] and at hSTING-WT was above 100 µM throughout.
Consider `COc1cc2c(=O)c3cc(Cl)cc(CC(=O)O)c3[nH]c2c(C)c1C` [Compound 38], for which the IC50 at hSTING-AQ, at hSTING-H232, at mSTING [1] and on hSTING-WT was above 100 µM in each case.
For the compound `CCc1ccc(NC(=O)Nc2c[nH]c3ccccc23)cc1` [Compound H151, reference compound], the “cytotoxicity, cell viability 293T cells” value in the data set on 293T cells (at 10 μM) is given as “significant cytotoxicity”. The “cytotoxicity, cell viability THP-1 cells” value in the data set on THP-1 cells (at 10 μM) is recorded as “significant cytotoxicity”.
